pIC50: −log10 of the molar value. Where two headings read alike, the source gives them in different places.
Tests used:
[1] = test system: Aβ40 in conditioned medium of cells stably expressing Amyloid Precursor Protein (APP); experiment: In vitro BACE cell-based assay (Aβ40 sandwich ELISA); settings: Homo sapiens
How it was run: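 Aβ40 in supernatants was measured by time-resolved fluorescence sandwich ELISA using pAb40 capture and biotinylated 6E10 detection, with antibody incubations at 4 °C. Stable APP cells were exposed to compounds for 24 h in a 10-point series (top dose 100 or 10 µM, 0.1% DMSO). IC50 was fitted from the concentration-response.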

Cathepsin D (Cat D) = Cathepsin D (Cat D) (Homo sapiens (Human), UniProt P07339); experiment: In vitro enzymatic Cathepsin D (Cat D) FRET assay; format: biochemical; settings: read-out: CatD IC50
Chain of Cathepsin D (Cat D) (P07339 65-412, species assumed): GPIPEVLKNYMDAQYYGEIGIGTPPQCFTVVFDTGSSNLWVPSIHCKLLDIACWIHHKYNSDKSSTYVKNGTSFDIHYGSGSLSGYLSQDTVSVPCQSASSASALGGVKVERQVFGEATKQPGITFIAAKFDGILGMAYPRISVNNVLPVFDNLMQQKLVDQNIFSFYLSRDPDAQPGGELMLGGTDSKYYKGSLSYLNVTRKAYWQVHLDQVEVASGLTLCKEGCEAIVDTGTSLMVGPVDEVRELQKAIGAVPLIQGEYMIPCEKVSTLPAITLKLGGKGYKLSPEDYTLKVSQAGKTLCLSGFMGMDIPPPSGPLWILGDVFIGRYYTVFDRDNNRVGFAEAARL
How it was run: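 CHO-expressed recombinant Cat D cleaves a fluorophore/quencher FRET peptide (20 nM) in 0.05 M citrate pH 3.5, 5 mM CHAPS, 10% DMSO final, over 1 h. Tris addition neutralizes pH to stop the reaction; fluorescence read at excitation 500 nm, emission 580 nm.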

[2] = target: Beta Secretase enzyme (BACE) (Homo sapiens (Human), UniProt P56817); experiment: In vitro enzymatic BACE FRET assay; format: biochemical; settings: read-out: BACE 1 FRET assay IC50
Chain of Beta Secretase enzyme (BACE) (P56817 46-501): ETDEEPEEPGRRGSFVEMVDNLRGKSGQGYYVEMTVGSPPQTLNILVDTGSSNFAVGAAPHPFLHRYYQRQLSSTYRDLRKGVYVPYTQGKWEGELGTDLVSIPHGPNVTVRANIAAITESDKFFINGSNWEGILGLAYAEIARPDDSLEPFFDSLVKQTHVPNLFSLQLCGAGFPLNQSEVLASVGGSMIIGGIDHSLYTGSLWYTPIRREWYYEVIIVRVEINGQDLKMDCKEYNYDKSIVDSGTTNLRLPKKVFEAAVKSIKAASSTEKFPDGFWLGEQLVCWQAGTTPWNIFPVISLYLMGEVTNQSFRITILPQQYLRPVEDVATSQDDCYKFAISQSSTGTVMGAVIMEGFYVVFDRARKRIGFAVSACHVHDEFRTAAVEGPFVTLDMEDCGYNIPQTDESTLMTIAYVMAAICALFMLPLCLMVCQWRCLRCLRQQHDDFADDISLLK
How it was run: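 A quenched fluorophore-peptide spanning the BACE cleavage site served as substrate at 50 nM, with one-hour incubation in pH 4.2 acetate buffer containing 100 uM genapol and 10% DMSO final. Fluorescence was measured after quenching with Tris to neutral pH.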

[3] = HEK293, read-out: HEK cell assay IC50
[4] = HEK293, average IC50, HEK cells, read-out: HEK cell assay IC50
[5] = HEK293, average IC50, HEK cell assay, read-out: HEK cell assay IC50
[6] = average IC50, cathepsin D enzyme assay
[7] = average IC50, BACE enzyme assay
[8] = HEK293, HEK cells, average, read-out: HEK cell assay IC50

Cn1cc(NC(=O)c2ccc(Cl)cn2)cc([C@]2(C)C[C@@H](C(F)(F)F)OC(N)=N2)c1=O [Example 148, N-(5-((4S,6S)-2-amino-4-methyl-6-(trifluoromethyl)-5,6-dihydro-4H-1,3-oxazin-4-yl)-1-methyl-6-oxo-1,6-dihydropyridin-3-yl)-5-chloropicolinamide]
pIC50 [1, 3]: 7.90 | pIC50 (Cathepsin D (Cat D); average IC50): < 3.40 | pIC50 ([2]; average IC50): 6.44

Cn1cc(NC(=O)c2ccc(C#N)cn2)cc([C@]2(C)C[C@@H](C(F)(F)F)OC(N)=N2)c1=O [Example 149, N-(5-((4S,6S)-2-amino-4-methyl-6-(trifluoromethyl)-5,6-dihydro-4H-1,3-oxazin-4-yl)-1-methyl-6-oxo-1,6-dihydropyridin-3-yl)-5-cyanopicolinamide]
pIC50 [1, 4]: 7.68 | pIC50 (Cathepsin D (Cat D); average IC50): < 3.40 | pIC50 ([2]; average IC50): 6.62

Cc1cc(C#N)cnc1C(=O)Nc1cc([C@]2(C)C[C@@H](C(F)(F)F)OC(N)=N2)c(=O)n(C)c1 [Example 150, N-(5-((4S,6S)-2-amino-4-methyl-6-(trifluoromethyl)-5,6-dihydro-4H-1,3-oxazin-4-yl)-1-methyl-6-oxo-1,6-dihydropyridin-3-yl)-5-cyano-3-methylpicolinamide]
pIC50 [1, 4]: 8.00 | pIC50 (Cathepsin D (Cat D); average IC50): < 3.40 | pIC50 ([2]; average IC50): 6.92

NC1=N[C@](CF)(c2cc(NC(=O)c3ccc(Cl)cn3)cc(F)c2F)C[C@@H](C(F)(F)F)O1 [Example 152, N-(3-((4S,6S)-2-amino-4-(fluoromethyl)-6-(trifluoromethyl)-5,6-dihydro-4H-1,3-oxazin-4-yl)-4,5-difluorophenyl)-5-chloropicolinamide]
pIC50 [1, 5]: 7.06 | pIC50 (Cathepsin D (Cat D); [6]): 2.56 | pIC50 [2, 7]: 7.59

COc1cnc(C(=O)Nc2cc(F)c(F)c([C@]3(CF)C[C@@H](C(F)(F)F)OC(N)=N3)c2)cn1 [Example 153, N-(3-((4S,6S)-2-amino-4-(fluoromethyl)-6-(trifluoromethyl)-5,6-dihydro-4H-1,3-oxazin-4-yl)-4,5-difluorophenyl)-5-methoxypyrazine-2-carboxamide]
pIC50 [1, 5]: 6.90 | pIC50 (Cathepsin D (Cat D); [6]): 2.47 | pIC50 [2, 7]: 7.30

COc1ccc(C(=O)Nc2cc(F)c(F)c([C@]3(CF)C[C@@H](C(F)(F)F)OC(N)=N3)c2)nc1 [Example 156, N-(3-((4S,6S)-2-amino-4-(fluoromethyl)-6-(trifluoromethyl)-5,6-dihydro-4H-1,3-oxazin-4-yl)-4,5-difluorophenyl)-5-methoxypicolinamide]
pIC50 [1, 5]: 6.91 | pIC50 (Cathepsin D (Cat D); [6]): < 3.40 | pIC50 [2, 7]: 7.21

C#CCOc1ccc(C(=O)Nc2cc(F)c(F)c([C@]3(CF)C[C@@H](C(F)(F)F)OC(N)=N3)c2)nc1 [Example 159, N-(3-((4S,6S)-2-amino-4-(fluoromethyl)-6-(trifluoromethyl)-5,6-dihydro-4H-1,3-oxazin-4-yl)-4,5-difluorophenyl)-5-(prop-2-yn-1-yloxy)picolinamide]
pIC50 [1, 5]: 7.03 | pIC50 (Cathepsin D (Cat D); [6]): < 3.40 | pIC50 [2, 7]: 7.89

NC1=N[C@](CF)(c2cc(Nc3nccc4cc(Cl)cnc34)cc(F)c2F)C[C@@H](C(F)(F)F)O1 [Example 161, (4S,6S)-4-(5-((3-chloro-1,7-naphthyridin-8-yl)amino)-2,3-difluorophenyl)-4-(fluoromethyl)-6-(trifluoromethyl)-5,6-dihydro-4H-1,3-oxazin-2-amine]
pIC50 [1, 5]: 6.27 | pIC50 (Cathepsin D (Cat D); [6]): < 3.40 | pIC50 [2, 7]: 7.64

COc1cc(C#N)cnc1C(=O)Nc1cc(F)c(F)c([C@]2(C)C[C@@H](C(F)(F)F)OC(N)=N2)c1 [Example 168, N-(3-((4S,6S)-2-amino-4-methyl-6-(trifluoromethyl)-5,6-dihydro-4H-1,3-oxazin-4-yl)-4,5-difluorophenyl)-5-cyano-3-methoxypicolinamide]
pIC50 [1, 3]: 8.21 | pIC50 (Cathepsin D (Cat D); [6]): < 3.40 | pIC50 [2, 7]: 7.29

Cc1cc(Cl)cnc1C(=O)Nc1cc(F)c(F)c([C@]2(C)C[C@@H](C(F)(F)F)OC(N)=N2)c1 [Example 170, N-(3-((4S,6S)-2-amino-4-methyl-6-(trifluoromethyl)-5,6-dihydro-4H-1,3-oxazin-4-yl)-4,5-difluorophenyl)-5-chloro-3-methylpicolinamide]
pIC50 [1, 5]: 7.85 | pIC50 (Cathepsin D (Cat D); [6]): 3.13 | pIC50 [2, 7]: 8.02

C[C@@]1(c2cc(NC(=O)c3ncc(Cl)cc3Cl)cc(F)c2F)C[C@@H](C(F)(F)F)OC(N)=N1 [Example 172, N-(3-((4S,6S)-2-amino-4-methyl-6-(trifluoromethyl)-5,6-dihydro-4H-1,3-oxazin-4-yl)-4,5-difluorophenyl)-3,5-dichloropicolinamide]
pIC50 [1, 5]: 7.72 | pIC50 (Cathepsin D (Cat D); [6]): 3.40 | pIC50 [2, 7]: 7.72

COc1cnc(C(=O)Nc2cc(F)c(F)c([C@]3(C)C[C@@H](C(F)(F)F)OC(N)=N3)c2)c(C)n1 [Example 173, N-(3-((4S,6S)-2-amino-4-methyl-6-(trifluoromethyl)-5,6-dihydro-4H-1,3-oxazin-4-yl)-4,5-difluorophenyl)-5-methoxy-3-methylpyrazine-2-carboxamide]
pIC50 [1, 8]: 7.07 | pIC50 (Cathepsin D (Cat D); average): < 3.40 | pIC50 ([2]; average): 6.93

C[C@@]1(c2cc(NC(=O)c3ccc(Br)cn3)cc(F)c2F)C[C@@H](C(F)(F)F)OC(N)=N1 [Example 175, N-(3-((4S,6S)-2-amino-4-methyl-6-(trifluoromethyl)-5,6-dihydro-4H-1,3-oxazin-4-yl)-4,5-difluorophenyl)-5-bromopicolinamide]
pIC50 [1, 8]: 8.18 | pIC50 (Cathepsin D (Cat D); average): 3.37 | pIC50 ([2]; average): 7.66

C[C@@]1(c2cc(Nc3nccc4cc(Cl)cnc34)cc(F)c2F)C[C@@H](C(F)(F)F)OC(N)=N1 [Example 176, (4S,6S)-4-(5-((3-chloro-1,7-naphthyridin-8-yl)amino)-2,3-difluorophenyl)-4-methyl-6-(trifluoromethyl)-5,6-dihydro-4H-1,3-oxazin-2-amine]
pIC50 [1, 5]: 6.99 | pIC50 (Cathepsin D (Cat D); [6]): 3.98 | pIC50 [2, 7]: 7.68

C[C@@]1(c2cc(Nc3ncc(F)c4cc(C#N)cnc34)cc(F)c2F)C[C@@H](C(F)(F)F)OC(N)=N1 [Example 177, 8-((3-((4S,6S)-2-amino-4-methyl-6-(trifluoromethyl)-5,6-dihydro-4H-1,3-oxazin-4-yl)-4,5-difluorophenyl)amino)-5-fluoro-1,7-naphthyridine-3-carbonitrile]
pIC50 [1, 5]: 6.56 | pIC50 (Cathepsin D (Cat D); [6]): < 5.31 | pIC50 [2, 7]: 7.52

C[C@@]1(c2cc(Nc3nccc4cc(C#N)cnc34)cc(F)c2F)C[C@@H](C(F)(F)F)OC(N)=N1 [Example 180, 8-((3-((4S,6S)-2-amino-4-methyl-6-(trifluoromethyl)-5,6-dihydro-4H-1,3-oxazin-4-yl)-4,5-difluorophenyl)amino)-1,7-naphthyridine-3-carbonitrile]
pIC50 [1, 5]: 7.44 | pIC50 (Cathepsin D (Cat D); [6]): < 3.40 | pIC50 [2, 7]: 7.85

NC1=N[C@](CF)(c2cc(C(=O)NC3CC3)ccc2F)C[C@@H](C(F)(F)F)O1 [Example 182, 3-((4S,6S)-2-amino-4-(fluoromethyl)-6-(trifluoromethyl)-5,6-dihydro-4H-1,3-oxazin-4-yl)-N-cyclopropyl-4-fluorobenzamide]
pIC50 [1, 5]: < 4.81 | pIC50 (Cathepsin D (Cat D); [6]): 2.46 | pIC50 [2, 7]: 4.94

C[C@@]1(c2cc(NC(=O)c3cnc(OCC(F)(F)F)cn3)cc(F)c2F)C[C@@H](C(F)(F)F)OC(N)=N1 [Example 186, N-(3-((4S,6S)-2-amino-4-methyl-6-(trifluoromethyl)-5,6-dihydro-4H-1,3-oxazin-4-yl)-4,5-difluorophenyl)-5-(2,2,2-trifluoroethoxy)pyrazine-2-carboxamide]
pIC50 [1, 8]: 7.82 | pIC50 (Cathepsin D (Cat D); average): < 3.40 | pIC50 ([2]; average): 7.68

C[C@@]1(c2cc(NC(=O)c3ncc(C(F)(F)F)cc3Cl)cc(F)c2F)C[C@@H](C(F)(F)F)OC(N)=N1 [Example 187, N-(3-((4S,6S)-2-amino-4-methyl-6-(trifluoromethyl)-5,6-dihydro-4H-1,3-oxazin-4-yl)-4,5-difluorophenyl)-3-chloro-5-(trifluoromethyl)picolinamide]
pIC50 [1, 8]: 7.82 | pIC50 (Cathepsin D (Cat D); average): < 3.40 | pIC50 ([2]; average): 7.12

CC#CCOc1ccc(C(=O)Nc2cc(F)c(F)c([C@]3(C)C[C@@H](C(F)(F)F)OC(N)=N3)c2)nc1 [Example 189, N-(3-((4S,6S)-2-amino-4-methyl-6-(trifluoromethyl)-5,6-dihydro-4H-1,3-oxazin-4-yl)-4,5-difluorophenyl)-5-(but-2-yn-1-yloxy)picolinamide]
pIC50 [1, 8]: 8.52 | pIC50 (Cathepsin D (Cat D); average): 3.11 | pIC50 ([2]; average): 8.52

C#CCOc1cnc(C(=O)Nc2cc(F)c(F)c([C@]3(C)C[C@@H](C(F)(F)F)OC(N)=N3)c2)cn1 [Example 190, N-(3-((4S,6S)-2-amino-4-methyl-6-(trifluoromethyl)-5,6-dihydro-4H-1,3-oxazin-4-yl)-4,5-difluorophenyl)-5-(prop-2-yn-1-yloxy)pyrazine-2-carboxamide]
pIC50 [1, 8]: 8.70 | pIC50 [1, 5]: < 4.81 | pIC50 (Cathepsin D (Cat D); [6]): < 3.40 | pIC50 (Cathepsin D (Cat D); average): 3.30 | pIC50 [2, 7]: < 4.40 | pIC50 ([2]; average): 8.70

Cc1cc(OCC2CC2)cnc1C(=O)Nc1cc(F)c(F)c([C@]2(C)C[C@@H](C(F)(F)F)OC(N)=N2)c1 [Example 191, N-(3-((4S,6S)-2-amino-4-methyl-6-(trifluoromethyl)-5,6-dihydro-4H-1,3-oxazin-4-yl)-4,5-difluorophenyl)-5-(cyclopropylmethoxy)-3-methylpicolinamide]
pIC50 [1, 8]: 6.26 | pIC50 (Cathepsin D (Cat D); average): 3.29 | pIC50 ([2]; average): 7.01

From patent publication US9296734B2 (AMGEN INC., priority 2013, dated 2016)
